What was measured:
[1] = toxicological study, lethal doses (Table IA); details: mouse, in vivo
Source text: The results relating to toxicology are brought together in Table IA below:

L1210 U.S.A. strain = assay: antitumor activity on leukemia L1210 U.S.A., compounds of formula IA, I.P.; format: in vivo, mouse
Experimental: On the day of the graft (by convention day 0=DO) an inoculum of 1×10^5 tumor cells in a volume of 0.2 ml is administered to each mouse by the intraperitoneal route (I.P.).
This inoculum is prepared by diluting ascites fluid taken from the peritoneum of a donor female mouse in NCTC 109 medium (Eurobio Laboratories Paris, France), counting of the cells in a MALASSEZ cell under a microscope and adjustment of the concentration to 5×10^5cells per ml.
After the tumor graft has been made, the mice are distributed at random in cages of 5 animals. Subsequently, these cages containing 5 mice are themselves distributed at random into a control group (control) and groups treated with the products of the invention.
(§1) The doses of the products of the invention used in the different experiments are expressed in milligrams per kilogram of body weight.
(§2) The products to be injected were dissolved in isotonic sodium chloride solution.
Two protocols for treatment were used in the different experiments:
(§3) or 3 I.P. injections on D1, D5, D9.
(§4) In each experiment the animals of the control group received 1 or more injections, depending on the experimental protocol used, by the same route (I.P. or I.V.) of the same volume (0.2 ml/20 g) of the vehicle not containing the active principle (isotonic sodium chloride solution).
(§5) the number and percentage of the total of the mice surviving to D60,
(§6) the T/C×100 for treated groups.
(§7) T representing the mean survival time of the mice in the treated group
(§8) C representing the mean survival time of the mice in the control group (control).

melanoma B16 [2] = assay: antitumor activity on melanoma B16, compounds of formula IA, I.P.; format: in vivo, mouse; details: B6 D2 F1, I.P. D1, D5, D9, 3×10 mg/kg
Experimental: The experiments were always carried out on SPF female mice B6 D2 F1/JIco (first generation hybrids between the lines C5BL/6 and DBA/2).
(§9) On the day of the graft (Day 0) an inoculum of 2×10^6 tumor cells in a volume of 0.5 ml is administered to each mouse by the intraperitoneal route (I.P.). This inoculum is prepared from a sub-cutaneous tumor excised from a donor female mouse. After excision the tumor is fragmented by means of a pair of scissors in the NCTC 109 medium. After filtration through sterile gauze in order to remove large cellular fragments, the homogeneous cell suspension obtained is counted by means of a MALASSEZ cell and diluted to the desired concentration (4×10^6 tumor cells per ml) by dilution with the NCTC 109 medium.
This was performed in the manner described previously for the leukemia L1210.
as §1, §2, §3, §4, §5, §6, §7, §8

melanoma B16 [3] = assay: activity toward melanoma B16 implanted subcutaneously, I.V. route; format: in vivo, mouse
Experimental: The activity of the substances of the invention was also tested by administering the said substances of the invention by the I.V. route. 0.5 ml of an homogenate of the tumor (1 g/10 ml) is administered to B6C3F1 female mice by the subcutaneous (S.C. route) on day 0. The products of the invention and the substances used for comparison are administered on days 3, 7 and 11 in isotonic solution.
In Table IIA below the results are presented relating to the activity of the substance CI. 1675 administered by the I.V. route on the growth of the melanoma B16 implanted subcutaneously, in comparison with carmustine BCNU marketed under the name of BiCNU®.
In Table IIA below and in the subsequent tables, T represents the mean weight (or median) of the tumors in the treated mice, C represents the mean weight (or median) of the tumors in the control, untreated mice and the ratio T/C% corresponds to T/C×100.

colon carcinoma C38 [4] = assay: activity on colon carcinoma C38 implanted subcutaneously, I.P. days 2 and 9; format: in vivo, mouse
Experimental: A tumor fragment is implanted on day 0 in female B6 D2 F1 mice (19-22 g). The treatment with all of the products is administered by the I.P. route on days 2 and 9 (which is a delayed treatment). The weight of the tumors is calculated on day 20.

colon carcinoma C38 [5] = assay: colon carcinoma C38, comparison of I.V. and I.P. routes, treatment days 8, 12, 16; format: in vivo, mouse; design: key to Median wt. of the tumor D20 / Median wt. of the tumor D27: median tumor weight in mg
Experimental: With a view to verifying the antitumor activity of the product of the invention CI.1671 when it is administered by the I.V. route, another experiment was performed in which this product was administered by the I.P. route and the I.V. route for the purposes of comparison.
This experiment is carried out under particularly difficult conditions, the first day of the treatment corresponding to the eighth day after the implantation of the carcinoma C38, whereas normally the treatment starts on the day of implantation of the tumor (D0) or 1 day after (D1) the implantation of the tumor.
The median weight of the tumors on the first day of treatment (day 8) is about 12 mg (tumors varying from 8 to 40 mg). The animals are treated on days 8, 12 and 16 depending on the different routes indicated. […]

L1210 U.S.A. = assay: antitumor activity on leukemia L1210 U.S.A., products of examples 33-39, I.P.; format: in vivo, mouse
Experimental: The experiments were always carried out on female mice which were specific pathogen-free (S. P. F.),
either of the line DBA/2JIco
or of the line B6 D2 F1/JIco (first generation hybrids between the lines C57BL/6 and DBA/2).
On the day of the graft (by convention day 0=D0) an inoculum of 1×10^5 tumor cells in a volume of 0.2 ml is administered to each mouse by the intraperitoneal route (I.P.).
This inoculum is prepared by diluting ascites fluid taken from the peritoneum of a donor female mouse in NCTC 109 medium (Eurobio Laboratories, Paris, France), counting of the cells in a MALASSEZ cell under a microscope and adjustment of the concentration to 5×10^5cells […] by means of the same medium.
The tumor line is an American strain of the line L1210.
After the tumor graft, the mice are distributed at random in cages of 5 animals. Subsequently, these cages containing 5 mice are themselves distributed at random into a control group (control) and groups treated with the I.C. products.
as §1, §2
2 protocols for treatment were used in the different experiments:
either a single injection on D1, by the intraperitoneal (I.P.) or intravenous (I.V.) route,
as §3
(§10) In each experiment the animals of the control group received 1 or more injections, depending on the experimental protocol used, by the same route (I.P. or I.V.) of the same volume (0.2 ml/20 g) of the vehicle without the active principle (isotonic sodium chloride solution).
as §5
(§11) the T/C×100 for the treated groups.
(§12) T representing the mean survival time of the mice in the treated group,
(§13) C representing the mean survival time of the mice in the control group (controls).

melanoma B16 [6] = assay: antitumor activity on melanoma B16, products of examples 33-39, I.P.; format: in vivo, mouse; details: B6 D2 F1, I.P. D1, D5, D9, 3×10 mg/kg
Experimental: The experiments are always carried out on SPF female mice, B6 D2 F1/JIco (first generation hybrids between the lines C57BL/6 and DBA/2).
as §9, with “(day 0),” for “(Day 0)”, “(4×10^6tumor” for “(4×10^6 tumor”
This was performed in the manner described for the leukemia L1210 (see above).
as §1, §2, §3, §10, §5, §11, §12, §13

[7] = toxicological results, single I.P. dose, DL0 and DL50; format: in vivo, mouse; details: mouse, in vivo, ip, mice
Source text: DL0, DL50, single I.P. dose administered to the aforementioned strains of mice.

[8] = B6 D2 F1, I.P. D1, D5, D9, 3×1.25 mg/kg
[9] = B6 D2 F1, I.P. D1, D5, D9, 3×5 mg/kg
[10] = I.P., 10 mg/kg/inj. days 2 and 9
[11] = I.P., 20 mg/kg/inj. days 2 and 9
[12] = I.P., 30 mg/kg/inj. days 2 and 9

## CO[C@@H]1O[C@H](CO)C[C@H](NC(=O)N(CCCl)N=O)[C@H]1O [CI. 1675, methyl 3-[3-(2-chloroethyl) 3-nitrosoureido] 3,4-dideoxy-β-D-xylo-hexopyranoside]
[1]
  LD0: ≥ 20 mg/kg
  LD50: ~40 mg/kg
L1210 U.S.A. strain; [8]
  Number of survivors at D60: 0/10
  T/C: 164
L1210 U.S.A. strain; [9]
  Number of survivors at D60: 5/10
  T/C: > 600
Melanoma B16 [2]
  Number of survivors at D60: 8/10
  T/C: 258
Melanoma B16 [3]; 10 mg/kg/inj. days 3, 7, 11
  Median weight of the tumor on day 3: 32,0 mg
  Median weight of the tumor on day 30: 2 025 mg
  T/C on day 30 (tumor weight): 25,9%
Melanoma B16 [3]; 15 mg/kg/inj. days 3, 7, 11
  Median weight of the tumor on day 3: 23,0 mg
  Median weight of the tumor on day 30: 1 044 mg
  T/C on day 30 (tumor weight): 13,4%
Melanoma B16 [3]; 20 mg/kg/inj. days 3, 7, 11
  Median weight of the tumor on day 3: 36,0 mg
  Median weight of the tumor on day 30: 688 mg
  T/C on day 30 (tumor weight): 8,8%
Colon carcinoma C38 [4]; I.P. route, delayed treatment
  efficacy against the colon carcinoma C38: considerable efficacy
Colon carcinoma C38 [4]; [10]
  Number of mice without tumor/total: 1/10
  T/C: 67%
  Weight of the tumor on day 20: 272 mg
Colon carcinoma C38 [4]; [11]
  Number of mice without tumor/total: 7/9
  T/C: 0%
  Weight of the tumor on day 20: 0 mg
Colon carcinoma C38 [4]; [12]
  Number of mice without tumor/total: 7/7
  T/C: 0%
  Weight of the tumor on day 20: 0 mg
  dead mice (remarks): 5
Colon carcinoma C38 [5]; I.P. Route, 10 mg/kg/inj.
  Median wt. of the tumor D20: 324
  Median wt. of the tumor D27: 1099
  Mice without tumor/total D20: 0
  Mice without tumor/total D27: 0
  T/C % D20: 57%
  T/C % D27: 84%
Colon carcinoma C38 [5]; I.P. Route, 15 mg/kg/inj.
  Median wt. of the tumor D20: 88
  Median wt. of the tumor D27: 726
  Mice without tumor/total D20: 0
  Mice without tumor/total D27: 0
  T/C % D20: 15%
  T/C % D27: 56%
Colon carcinoma C38 [5]; I.P. Route, 20 mg/kg/inj.
  Median wt. of the tumor D20: 13
  Median wt. of the tumor D27: 172
  Mice without tumor/total D20: 1/8
  Mice without tumor/total D27: 2/8
  T/C % D20: 2%
  T/C % D27: 13%
Colon carcinoma C38 [5]; I.V. Route, 10 mg/kg/inj.
  Median wt. of the tumor D20: 23
  Median wt. of the tumor D27: 352
  Mice without tumor/total D20: 0/8
  Mice without tumor/total D27: 0/8
  T/C % D20: 4%
  T/C % D27: 27%
Colon carcinoma C38 [5]; I.V. Route, 15 mg/kg/inj.
  Median wt. of the tumor D20: 0
  Median wt. of the tumor D27: 0
  Mice without tumor/total D20: 7/8
  Mice without tumor/total D27: 7/7
  T/C % D20: 0%
  T/C % D27: 0%
Colon carcinoma C38 [5]; I.V. Route, 20 mg/kg/inj.
  Median wt. of the tumor D20: 0
  Median wt. of the tumor D27: 0
  Mice without tumor/total D20: 6/8
  Mice without tumor/total D27: 6/6
  T/C % D20: 0%
  T/C % D27: 0%

## CO[C@H]1C[C@@H](NC(=O)N(CCCl)N=O)[C@H](O)[C@@H](CO)O1 [IC. 85-1673, methyl 3-[3-(2-chloroethyl) 3-nitrosoureido] 2,3-dideoxy β-D-arabino-hexopyranoside]
L1210 U.S.A.; [8]
  Number of survivors: 0/10
  T/C: 158
L1210 U.S.A.; [9]
  Number of survivors: 6/10
  T/C: 626
Melanoma B16 [6]
  Number of survivors: 4/10
  T/C: 232
[7]
  LD50: ~20 mg/kg
